The record followed here is patent US11020395B2, “Cycloalkyl substituted triazole compounds as agonists of the APJ receptor” (AMGEN INC., priority 2016, dated 2021).

For the first test, the target named is human APJ receptor (Homo sapiens (Human), UniProt P35414). As to the kind of experiment: [35S]GTPγS binding assay on membranes from CHO cells stably expressing human APJ receptor. The format is biochemical. The settings on record: [35S]GTPγS SPA, read-out: Activity hAPJ SPA EC50 IP. An outline of the steps: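 Agonist-stimulated [35S]GTPγS binding measured on membranes of a stable human APJ CHO line, 90 min at room temperature, with GDP, MgCl2 and NaCl levels optimized beforehand. Means of independent runs fitted by non-linear regression to give EC50.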
Chain of human APJ receptor (P35414 whole entry): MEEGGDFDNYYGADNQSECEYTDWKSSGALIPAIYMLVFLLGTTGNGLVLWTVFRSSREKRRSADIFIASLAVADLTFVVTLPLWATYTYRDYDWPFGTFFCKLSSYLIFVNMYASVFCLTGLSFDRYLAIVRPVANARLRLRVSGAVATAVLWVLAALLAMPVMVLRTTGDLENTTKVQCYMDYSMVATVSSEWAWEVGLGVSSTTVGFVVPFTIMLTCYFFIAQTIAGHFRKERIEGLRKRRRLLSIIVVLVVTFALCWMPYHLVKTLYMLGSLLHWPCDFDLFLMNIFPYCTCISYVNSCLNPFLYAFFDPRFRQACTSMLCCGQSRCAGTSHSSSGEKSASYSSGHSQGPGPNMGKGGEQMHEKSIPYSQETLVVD
For the compound “(1R,2S)-1-(5-chloropyrimidin-2-yl)-N-(4-(4,6-dimethoxypyrimidin-5-yl)-5-((R)-spiro[2.2]pentan-1-yl)-4H-1,2,4-triazol-3-yl)-1-methoxypropane-2-sulfonamide or (1R,2S)-1-(5-chloropyrimidin-2-yl)-N-(4-(4,6-dimethoxypyrimidin-5-yl)-5-((S)-spiro[2.2]pentan-1-yl)-4H-1,2,4-triazol-3-yl)-1-methoxypropane-2-sulfonamide [Example 106.0]”, the EC50 (commonly the concentration at which the effect is half-maximal) came to 19 nM.

Consider “(1R,2S)-1-(5-chloropyrimidin-2-yl)-N-(4-(4,6-dimethoxypyrimidin-5-yl)-5-((R)-spiro[2.2]pentan-1-yl)-4H-1,2,4-triazol-3-yl)-1-methoxypropane-2-sulfonamideor (1R,2S)-1-(5-chloropyrimidin-2-yl)-N-(4-(4,6-dimethoxypyrimidin-5-yl)-5-((S)-spiro[2.2]pentan-1-yl)-4H-1,2,4-triazol-3-yl)-1-methoxypropane-2-sulfonamide [Example 105.0]”, for which the EC50 came out at 0.92 nM. On to “(1R,2S)-1-(5-chloropyrimidin-2-yl)-N-(5-((R)-2,2-dimethylcyclopropyl)-4-(tetrahydro-2H-pyran-4-yl)-4H-1,2,4-triazol-3-yl)-1-methoxypropane-2-sulfonamide or (1R,2S)-1-(5-chloropyrimidin-2-yl)-N-(5-((S)-2,2-dimethylcyclopropyl)-4-(tetrahydro-2H-pyran-4-yl)-4H-1,2,4-triazol-3-yl)-1-methoxypropane-2-sulfonamide [Example 20.0]”, for which the EC50 stood at 840 nM. Take “(1R,2S)-1-(5-chloropyrimidin-2-yl)-N-(5-((R)-2,2-dimethylcyclopropyl)-4-(tetrahydro-2H-pyran-4-yl)-4H-1,2,4-triazol-3-yl)-1-methoxypropane-2-sulfonamide or (1R,2S)-1-(5-chloropyrimidin-2-yl)-N-(5-((S)-2,2-dimethylcyclopropyl)-4-(tetrahydro-2H-pyran-4-yl)-4H-1,2,4-triazol-3-yl)-1-methoxypropane-2-sulfonamide [Example 21.0]”: the concentration giving a half-maximal response (EC50) was found to be 480 nM. As to “(1S,2S)-N-(4-(2,6-dimethoxyphenyl)-5-(trans-3-methoxycyclobutyl)-4H-1,2,4-triazol-3-yl)-1-(5-methyl-2-pyrimidinyl)-1-(2-propanyloxy)-2-propanesulfonamide or (1S,2S)-N-(4-(2,6-dimethoxyphenyl)-5-(cis-3-methoxycyclobutyl)-4H-1,2,4-triazol-3-yl)-1-(5-methyl-2-pyrimidinyl)-1-(2-propanyloxy)-2-propanesulfonamide [Example 226.0]”, the EC50 stood at 21 nM. As to “(2S,3R)-3-(5-chloropyrimidin-2-yl)-N-(4-(2,6-dimethoxyphenyl)-5-((S)-spiro[2.2]pentan-1-yl)-4H-1,2,4-triazol-3-yl)butane-2-sulfonamide or (2S,3R)-3-(5-chloropyrimidin-2-yl)-N-(4-(2,6-dimethoxyphenyl)-5-((R)-spiro[2.2]pentan-1-yl)-4H-1,2,4-triazol-3-yl)butane-2-sulfonamide [Example 218.0]”, the EC50 stood at 1.1 nM. Consider “(2S,3R)-3-(5-chloropyrimidin-2-yl)-N-(4-(2,6-dimethoxyphenyl)-5-((S)-spiro[2.2]pentan-1-yl)-4H-1,2,4-triazol-3-yl)butane-2-sulfonamide or (2S,3R)-3-(5-chloropyrimidin-2-yl)-N-(4-(2,6-dimethoxyphenyl)-5-((R)-spiro[2.2]pentan-1-yl)-4H-1,2,4-triazol-3-yl)butane-2-sulfonamide [Example 219.0]”, for which the EC50 turned out to be 29 nM. Still for that read-out and setting: as for “(2S,3R)-3-(5-chloropyrimidin-2-yl)-N-(5-((R)-2,2-difluorocyclopropyl)-4-(2,6-dimethoxyphenyl)-4H-1,2,4-triazol-3-yl)butane-2-sulfonamide or (2S,3R)-3-(5-chloropyrimidin-2-yl)-N-(5-((S)-2,2-difluorocyclopropyl)-4-(2,6-dimethoxyphenyl)-4H-1,2,4-triazol-3-yl)butane-2-sulfonamide [Example 220.0]”, the figure is 39 nM; as for “(2S,3R)-3-(5-chloropyrimidin-2-yl)-N-(5-((R)-2,2-difluorocyclopropyl)-4-(2,6-dimethoxyphenyl)-4H-1,2,4-triazol-3-yl)butane-2-sulfonamide or (2S,3R)-3-(5-chloropyrimidin-2-yl)-N-(5-((S)-2,2-difluorocyclopropyl)-4-(2,6-dimethoxyphenyl)-4H-1,2,4-triazol-3-yl)butane-2-sulfonamide [Example 221.0]”, 18 nM.

In the next test the target is human APJ-AT1R double stable CHO cell line (Homo sapiens (Human), UniProt P35414). Briefly: IP1 accumulation (TR-FRET) assay with AngII in human APJ-AT1R double stable CHO cell line. Particulars: in the presence of AngII and APJ small molecule agonists. The format is cell-based. How it is done: The function of the inositol phosphate accumulation (IP1) was measured by Time-resolved fluorescence resonance energy (TR-FRET) at 620 nm and 665 nm respectively.
Chain of human APJ-AT1R double stable CHO cell line (P35414 whole entry): as above
The plate was sealed and incubated for 1 hour.
On to `CCCCc1nc(Cl)c(CO)n1Cc1ccc(-c2ccccc2-c2nn[nH]n2)cc1` [losartan], for which the “effect on APJ agonist-induced positive cooperativity” value was “relieved this cooperativity”.

Another test deals with heart failure rats. As to the kind of experiment: Cardiac function with APJ small molecule agonists in the presence of ACE inhibitor captopril in heart failure rats in vivo. Set-up: species or system rat. The settings on record: captopril alone, acute settings. The text has this: The interaction between […] (ACE2) and Apelin biology is complicated. To investigate the interaction between the Apelin-APJ and ACE signalling pathways, we examined the improvement in cardiac function with APJ small molecule agonists in the presence of ACE inhibitor captopril in heart failure rats in vivo. […] However, in the presence of an APJ agonist, there was a shift in potency to the left with marked improvement in contractility and ejection fraction without changes in heart rate. These findings provide a new reference for the understanding of the regulation of ACE2 for the renin angiotensin aldosterone system (RAAS), independent of AT1R signaling and offer new potential drug targets for the treatment of diseases such as hypertension and heart failure. This work clearly establishes that combination of an agonist of the APJ receptor with an ARB such as losartan and/or with an ACE inhibitor such as captopril which may play an important role in providing greater efficacy in treating heart failure patients, for example in improving contractility and ejection fraction without changing the heart rate.
Take `C[C@H](CS)C(=O)N1CCC[C@H]1C(=O)O` [Captopril, captopril]: the “contractility or ejection fraction” value is given as “does not show a marked improvement”.
